Experimental data taken from paper PMC8230565, “Bisavenathramide Analogues as Nrf2 Inductors and Neuroprotectors in In Vitro Models of Oxidative Stress and Hyperphosphorylation” (Antioxidants, 2021).
Entries after “also recorded” stand apart in the source; their conditions may differ.

Tests used:
Assay type in all cases: cell-based
[1] = tested on: NQO1; test: Western blot of Nrf2-dependent protein expression in AREc32 cells: NQO1; conditions: 30 μM, 24 h
Description: (§1) AREc32 cells were collected from plates after 24 h of treatment with the selected compound at 30 µM. Then, they were lysed in ice-cold lysis buffer (1% Nonidet P-40, 10% glycerol, 137 mM NaCl, 20 mM Tris HCl pH 7.5, 1 μg/mL leupeptin, 1 mM phenylmethylsulfonyl fluoride, 20 mM NaF, 1 mM sodium pyrophosphate, and 1 mM Na3VO4). After this treatment, proteins (30 μg) were resolved by gel electrophoresis on sodium dodecyl sulfate–polyacrylamide (12%) and transferred to Immobilon-P membranes (MilliporeSigma, Burlington, MA, USA). The membranes were incubated with anti-GCLc (1:1000, Ab41463 (Abcam, Cambridge, MA, USA), anti−HMOX1 (1:1000, ab68477, Abcam), anti-NQO1 (1:1000, 11451-1-AP, Proteintech, Manchester, UK), or anti-β-Actin (1:100,000, A3854, Merck, Madrid, Spain). Peroxidase-conjugated secondary antibodies (1:10,000 and anti-rabbit: SC-2357, Santa Cruz Biotechnology, Dallas, TX, USA) were employed to detect the proteins by enhanced chemoluminescence. Band intensities corresponding to immunoblot detection of protein samples were quantitated with Fiji software.
(§2) Figure 4 Compound 3g effectively induces Nrf2 translocation and overexpression of Nrf2-ARE dependent genes in AREc32 cells. […] (B) Nrf2 nuclear localization analysis, measured as integrated intensity localized at the nucleus. HMOX1 (C) and NQO1 (D) expression in AREc32, measured by Western blot analysis. […]

[2] = tested on: HMOX1; test: Western blot of Nrf2-dependent protein expression in AREc32 cells: HMOX1; conditions: 30 μM, 24 h
Description: as §1, §2

[3] = tested on: Nrf2; test: Nrf2 nuclear translocation, immunocytochemistry in AREc32 cells; conditions: 30 μM, 1 h
Description: AREc32 or SH-SY5Y cells were seeded in 24 multiwell plates (40,000 or 100,000 cells per well, respectively) on poly-D-Lysine coated crystal slides. AREc32 cells were incubated for 1 h with the compounds under assay, and were then fixed by treatment with a 4% solution of paraformaldehyde in PBS for 15 min, followed by three washings with PBS in 5 min intervals. SH-SY5Y cells were treated with compounds during 24 h, and then co-incubated with medium (basal), okadaic acid (OA, 20 nM), or OA plus compound 3i (10 μM). […]
Figure 4 Compound 3g effectively induces Nrf2 translocation and overexpression of Nrf2-ARE dependent genes in AREc32 cells. […] (B) Nrf2 nuclear localization analysis, measured as integrated intensity localized at the nucleus. HMOX1 (C) and NQO1 (D) expression in AREc32, measured by Western blot analysis. Cells were treated with compound 3g (30 µM), sulforaphane (10 µM), or culture medium (basal) for 24 h and protein expression was then assessed. Graphs are expressed as densitometric quantification using β-actin for normalization (bottom). […] Data are expressed as mean ± S.E.M. of six independent experiments. […]

[4] = tested on: SH-SY5Y cells; test: Superoxide production (DHE) in SH-SY5Y cells under R/O; conditions: 1 and 10 µM
Description: To evaluate superoxide production, we used the fluorescent dye dihydroethidium (DHE). SH-SY5Y cells were seeded in 96-well clear-bottom black plates (6 × 10^4 cells/well). After 24 h, cells were treated with compound 3i at the desired concentrations for 24 h. Thereafter, treatments were eliminated and cells were loaded with DHE (20 μM) for 45 min. […] Fluorescence was evaluated in a Nikon T1000 fluorescence microscope at 490/630 excitation/emission wavelengths, respectively. Images were quantitated using Fiji software, and data are expressed as the increase after 6 h exposure to ROS generator, normalized to basal conditions as 100% increase.
To further evaluate its mechanism of action, and considering the importance of exacerbated oxidative stress in neurodegenerative diseases, we evaluated its capacity to reduce free radical species production using the above-mentioned R/O toxic combination to generate ROS and measure the influence of 3i in the total ROS production by using the H2DCFDA dye, and also the specific superoxide production by using the selective dye dihydroetidium (DHE). […] This reduction might be related to a combination of direct scavenger effect and an increased expression of Nrf2-dependent antioxidant genes, such as HO-1.

[5] = tested on: HO-1; test: HO-1 immunofluorescence in SH-SY5Y cells treated with okadaic acid; conditions: 10 µM, OA 20 nM, 8 h
Description: (§3) AREc32 or SH-SY5Y cells were seeded in 24 multiwell plates (40,000 or 100,000 cells per well, respectively) on poly-D-Lysine coated crystal slides. AREc32 cells were incubated for 1 h with the compounds under assay, and were then fixed by treatment with a 4% solution of paraformaldehyde in PBS for 15 min, followed by three washings with PBS in 5 min intervals. SH-SY5Y cells were treated with compounds during 24 h, and then co-incubated with medium (basal), okadaic acid (OA, 20 nM), or OA plus compound 3i (10 μM). Thereafter, cells were permeabilized by treatment with 0.5% Triton X-100 for 5 min, followed by three washings with PBS, and were incubated overnight with primary antibody anti-Nrf2 (ARE, 1:50, A-10, sc-365949, Santa Cruz Biotechnology, Dallas, TX, USA), anti-pTau AT8 (1:400, MN1020, Thermofisher, Madrid, Spain), and anti-HO-1 (1:400, Ab13243, Abcam, Madrid, Spain). After three washes with PBS, the cells were incubated with secondary antibodies (1:800, 1 h). In order to visualize the nuclei, the cells were counterstained during the second wash with 5 μg·mL^−1 of Hoechst 33342 (Invitrogen, Madrid, Spain). […]
(§4) Finally, we evaluated the capacity of compound 3i to reduce tau hyperphosphorylation in the SH-SY5Y cellular line induced by okadaic acid (OA). […]

[6] = tested on: SH-SY5Y cells; test: Neuroprotection against rotenone/oligomycin A in SH-SY5Y cells (MTT); conditions: increasing concentrations; R/O 30/10 µM
[7] = tested on: AT8 (Ser202, Thr205 phospho-Tau); test: Phospho-tau (AT8) immunofluorescence in SH-SY5Y cells treated with okadaic acid; conditions: 10 µM, OA 20 nM, 8 h
Description: as §3, §4

## COC(=O)C1=C(C)N(CCc2ccccc2)C(=O)/C1=C\c1cc(OC)c(OC)c(OC)c1 [Compound 3g, Methyl (Z)-2-Methyl-5-oxo-1-phenethyl-4-(3,4,5-trimethoxybenzylidene)-4,5-dihydro-1H-pyrrole-3-carboxylate]
[1]
  NQO1 protein levels: significantly increased
[2]
  HMOX1 protein levels: significantly increased
[3]
  Nrf2 distribution in cells: predominately nuclear distribution of Nrf2

## COC(=O)C1=C(C)N(CCc2ccccc2)C(=O)/C1=C\c1ccc(O)c(O)c1 [Compound 3i, Methyl (Z)-4-(3,4-Dihydroxybenzylidene)-2-methyl-5-oxo-1-phenethyl-4,5-dihydro-1H-pyrrole-3-carboxylate]
[4]
  superoxide production (DHE): reduce superoxide production at both concentrations
[5]
  increase of HO-1 levels compared to basal levels: 46%
[6]
  neuroprotective effect against rotenone/oligomycin A by concentration: statistically significant neuroprotective effect at 0.1 and 1 µM; also recorded: this activity was lost at 10 µM
[7]
  phospho-tau levels: significantly reduced phopho-tau levels to basal levels
